Experimental data: article PMC12508156, “Non-canonical dihydrolipoyl transacetylase promotes chemotherapy resistance via mitochondrial tetrahydrofolate signaling” (Nature Communications, 2025)
Several values for one entry are separate records, joined by “and”; a condition that tells them apart may be missing. Equal entries are not always repeated.

Assays:
[1] = molecular target: T1, pyruvate dehydrogenase complex (PDC) (Homo sapiens, UniProt P08559+P09622+P10515); test: PDC activity (PDH enzyme activity microplate assay); format: cell-based; conditions: cisplatin 24 h, NADH production from PDH reaction, normalised, n=1-3: biological replicates, listed as cis
T1 construct: endogenous in cells; host or cells: A549cisR and KB-3-1cisR cells (lysates; Abcam PDH Enzyme Activity Microplate Assay Kit)
T1 sequence (P08559 30-390): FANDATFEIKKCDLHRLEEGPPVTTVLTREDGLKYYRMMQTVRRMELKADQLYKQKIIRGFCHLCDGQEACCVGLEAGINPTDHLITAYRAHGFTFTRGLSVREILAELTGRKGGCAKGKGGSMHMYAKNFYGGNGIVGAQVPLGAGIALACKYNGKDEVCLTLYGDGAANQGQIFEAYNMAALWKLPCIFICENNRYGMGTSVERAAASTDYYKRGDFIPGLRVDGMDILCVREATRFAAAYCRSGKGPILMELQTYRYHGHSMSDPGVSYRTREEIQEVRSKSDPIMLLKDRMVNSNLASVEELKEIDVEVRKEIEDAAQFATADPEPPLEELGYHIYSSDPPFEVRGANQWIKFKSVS
T1 sequence (P10515 87-647): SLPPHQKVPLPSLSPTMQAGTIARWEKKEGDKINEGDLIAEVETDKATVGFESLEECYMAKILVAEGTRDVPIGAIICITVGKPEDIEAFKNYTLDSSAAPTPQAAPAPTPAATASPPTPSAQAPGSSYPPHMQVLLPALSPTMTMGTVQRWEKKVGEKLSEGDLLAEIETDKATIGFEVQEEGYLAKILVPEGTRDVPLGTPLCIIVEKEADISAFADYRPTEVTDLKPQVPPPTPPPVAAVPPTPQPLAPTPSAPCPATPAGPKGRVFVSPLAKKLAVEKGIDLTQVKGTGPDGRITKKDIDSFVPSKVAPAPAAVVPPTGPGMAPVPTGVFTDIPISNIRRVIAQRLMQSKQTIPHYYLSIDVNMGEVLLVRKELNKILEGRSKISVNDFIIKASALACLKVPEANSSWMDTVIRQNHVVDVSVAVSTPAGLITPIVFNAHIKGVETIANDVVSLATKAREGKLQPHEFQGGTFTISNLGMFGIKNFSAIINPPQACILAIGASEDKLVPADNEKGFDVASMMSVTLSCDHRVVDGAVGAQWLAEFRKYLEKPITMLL
T1 sequence (P09622 36-509): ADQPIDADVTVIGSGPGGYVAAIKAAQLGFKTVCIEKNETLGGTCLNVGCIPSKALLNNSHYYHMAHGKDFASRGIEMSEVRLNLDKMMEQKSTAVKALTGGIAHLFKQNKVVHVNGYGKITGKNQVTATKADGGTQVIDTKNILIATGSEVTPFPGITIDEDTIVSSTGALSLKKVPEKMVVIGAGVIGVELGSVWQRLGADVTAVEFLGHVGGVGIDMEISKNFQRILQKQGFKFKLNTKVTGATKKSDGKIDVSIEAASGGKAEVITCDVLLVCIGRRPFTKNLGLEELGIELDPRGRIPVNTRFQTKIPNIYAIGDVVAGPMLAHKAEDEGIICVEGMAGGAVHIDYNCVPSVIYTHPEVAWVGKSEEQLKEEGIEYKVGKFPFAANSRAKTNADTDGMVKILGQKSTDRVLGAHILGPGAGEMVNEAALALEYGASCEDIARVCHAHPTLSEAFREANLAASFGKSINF
Method: Cellular metabolic states were examined through various assays. […] Intracellular H2O2, NADPH, acetyl-CoA, and GSH/GSSG ratios were quantified using commercial assay kits as listed in the Reagents. Intracellular ATP levels were determined utilizing the ATP bioluminescent somatic cell assay and normalized to the total protein concentrations. The de novo synthesized RNA and proteins were assessed in cancer cells using commercial assays following the manufacturer’s protocols. In brief, O-propargyl-puromycin or uridine analog, 5-EU, was applied to stop translation or modify RNA. Polypeptides or modified RNA were measured using fluorescent azide with Ex/Em at 494/521 nm. PDC activity was determined by measuring the reduction of NAD+ to NADH during the conversion of pyruvate into acetyl-CoA. To estimate the activity of the pyruvate dehydrogenase complex (PDC), PDH (E1 subunit) activity was measured using the Pyruvate Dehydrogenase Enzyme Activity Microplate Assay Kit (Abcam) according to the manufacturer’s instructions. Briefly, A549^cisR and KB-3-1^cisR cells with or without DLAT knockdown were harvested, washed with PBS, and lysed using the supplied detergent solution. After quantifying protein concentration, lysates were diluted to 10 mg/ml in 1 ⅹ buffer, and 200 μl of assay solution was added to each well, and absorbance at 450 nm was measured kinetically every 30 s for 30 min at room temperature using a microplate reader.

GSH/GSSG = GSH/GSSG ratio (GSH/GSSG-Glo); format: cell-based, human

N.N.[Cl][Pt][Cl] [cisplatin]
PDC activity ([1]; A549cisR pLKO.1): 0.9844 and 1.125 and 1.078 | PDC activity ([1]; A549cisR shDLAT): 0.375 and 0.4219 | PDC activity ([1]; KB-3-1cisR pLKO.1): 1.12 and 1.073 | PDC activity ([1]; KB-3-1cisR shDLAT): 0.06728 and 0.05145 and 0.04749 | GSH/GSSG (GSH/GSSG; A549cisR cells, pLKO.1, n=1): 18.3651 | GSH/GSSG (GSH/GSSG; A549cisR cells, pLKO.1, n=3): 19.3614 | GSH/GSSG (GSH/GSSG; A549cisR cells, pLKO.1, n=4): 18.0395 | GSH/GSSG (GSH/GSSG; A549cisR cells, shDLAT, n=1): 8.402 | GSH/GSSG (GSH/GSSG; A549cisR cells, shDLAT, n=2): 8.901 | GSH/GSSG (GSH/GSSG; A549cisR cells, shDLAT, n=4): 10.9995 | GSH/GSSG (GSH/GSSG; A549cisR, CTL, sheet Figure 5G, replicate n=1): 25.1517 | GSH/GSSG (GSH/GSSG; A549cisR, CTL, sheet Figure 5G, replicate n=2): 26.0996 | GSH/GSSG (GSH/GSSG; A549cisR, CTL, sheet Figure 5G, replicate n=3): 23.5884 | GSH/GSSG (GSH/GSSG; A549cisR, shDLAT+Flag-MTHFD2 (K44Q), sheet Figure 5G, replicate n=1): 31.9457 | GSH/GSSG (GSH/GSSG; A549cisR, shDLAT+Flag-MTHFD2 (K44Q), sheet Figure 5G, replicate n=2): 29.1783 | GSH/GSSG (GSH/GSSG; A549cisR, shDLAT+Flag-MTHFD2 (K44Q), sheet Figure 5G, replicate n=3): 30.4077 | GSH/GSSG (GSH/GSSG; A549cisR, shDLAT+Flag-MTHFD2 (K44R), sheet Figure 5G, replicate n=1): 8.894 | GSH/GSSG (GSH/GSSG; A549cisR, shDLAT+Flag-MTHFD2 (K44R), sheet Figure 5G, replicate n=2): 10.2513 | GSH/GSSG (GSH/GSSG; A549cisR, shDLAT+Flag-MTHFD2 (K44R), sheet Figure 5G, replicate n=3): 9.633 | GSH/GSSG (GSH/GSSG; A549cisR, shDLAT, sheet Figure 5G, replicate n=1): 8.501 | GSH/GSSG (GSH/GSSG; A549cisR, shDLAT, sheet Figure 5G, replicate n=2): 9.861 | GSH/GSSG (GSH/GSSG; A549cisR, shDLAT, sheet Figure 5G, replicate n=3): 10.404 | GSH/GSSG (GSH/GSSG; KB-3-1cisR cells, pLKO.1, n=1): 14.1658 | GSH/GSSG (GSH/GSSG; KB-3-1cisR cells, pLKO.1, n=2): 13.5059 | GSH/GSSG (GSH/GSSG; KB-3-1cisR cells, pLKO.1, n=3): 14.1711 | GSH/GSSG (GSH/GSSG; KB-3-1cisR cells, pLKO.1, n=4): 12.6758 | GSH/GSSG (GSH/GSSG; KB-3-1cisR cells, shDLAT, n=3): 6.177 | GSH/GSSG (GSH/GSSG; KB-3-1cisR cells, shDLAT, n=4): 6.252 | GSH/GSSG (GSH/GSSG; KB-3-1cisR, CTL, sheet Figure 5G, replicate n=1): 15.3805 | GSH/GSSG (GSH/GSSG; KB-3-1cisR, CTL, sheet Figure 5G, replicate n=2): 14.4145 | GSH/GSSG (GSH/GSSG; KB-3-1cisR, CTL, sheet Figure 5G, replicate n=3): 16.7699 | GSH/GSSG (GSH/GSSG; KB-3-1cisR, shDLAT+Flag-MTHFD2 (K44Q), sheet Figure 5G, replicate n=1): 25.3381 | GSH/GSSG (GSH/GSSG; KB-3-1cisR, shDLAT+Flag-MTHFD2 (K44Q), sheet Figure 5G, replicate n=2): 26.6695 | GSH/GSSG (GSH/GSSG; KB-3-1cisR, shDLAT+Flag-MTHFD2 (K44Q), sheet Figure 5G, replicate n=3): 26.7501 | GSH/GSSG (GSH/GSSG; KB-3-1cisR, shDLAT+Flag-MTHFD2 (K44R), sheet Figure 5G, replicate n=1): 6.376 | GSH/GSSG (GSH/GSSG; KB-3-1cisR, shDLAT+Flag-MTHFD2 (K44R), sheet Figure 5G, replicate n=2): 6.273 | GSH/GSSG (GSH/GSSG; KB-3-1cisR, shDLAT+Flag-MTHFD2 (K44R), sheet Figure 5G, replicate n=3): 6.832 | GSH/GSSG (GSH/GSSG; KB-3-1cisR, shDLAT, sheet Figure 5G, replicate n=1): 7.027 | GSH/GSSG (GSH/GSSG; KB-3-1cisR, shDLAT, sheet Figure 5G, replicate n=2): 6.914 | GSH/GSSG (GSH/GSSG; KB-3-1cisR, shDLAT, sheet Figure 5G, replicate n=3): 7.456
